Assay results: PMC7065771, “Dietary supplementation of recombinant antimicrobial peptide Epinephelus lanceolatus piscidin improves growth performance and immune response in Gallus gallus domesticus” (PLoS ONE, 2020)

Columns and labels:
[1] = test system: Gallus gallus domesticus; test: Dietary supplementation trial, growth performance and survival; assay type: in vivo; details: ad libitum, 35 days (table title: 4 weeks), n = 27; for FE (feed efficiency) / PER (protein efficiency ratio) / Weight gain: mean ± SD
From the text: (§1) A total of 189 male or female 2-day-old G. g. domesticus were randomly assigned to seven dietary treatment groups, including rEP (0.75, 1.5, 3.0, 6.0 and 12%), spiraline-A (Juily Pharmaceutical Co., LTD. San Sia, Taipei Hsien, Taiwan), and basal diet groups. Each treatment group consisted of one cage with twenty-seven G. g. domesticus. The composition of the fodder is presented in S1b–S1d Table. The animals were allowed ad libitum access to fodder and water for the duration of the trial, beginning from 3 days of age. The total time of feeding was 35 days. The G. g. domesticus were maintained in a cage (animal container) with a constant environment (28.9–37.8°C, 12/12 h light-dark cycle). rEP fodder and fecal sewage were not directly discharged to the outside.
(§2) Body weight and survival rate were monitored daily during the experimental period. The weight gain, feed efficiency (FE), protein efficiency ratio (PER), and survival percentage were calculated. After 35 days of treatment, the G. g. domesticus were euthanized, blood samples were collected and serum was obtained by centrifugation (3000 ×g for 15 min at 4°C). Serum was kept at -80°C until analysis. Enzyme-linked immunosorbent assay (ELISA) was performed in accordance with the manufacturer’s standard procedures to determine the levels of immunological factors, including TNF-α, Interleukin-1β, Interleukin-6, Interleukin-10, Lysozyme, Immunoglobin-G (IgG), and Interferon-γ. Chicken serum samples were analyzed with ELISA kits from ABclonal Inc. (Woburn, MA, USA). After the reaction was completed, the optical density (OD) was measured at 450 nm on a microplate reader (SpectraMax® i3, Molecular Devices, Lagerhausstrasse, Wals, Austria).
Data were analyzed with Prism 7 software (GraphPad Inc., La Jolla, CA, USA). Values represent the mean ± standard deviation (SD). P < 0.05 was considered significant for one-way Analysis of variance (ANOVA) with Tukey’s multiple comparison test.

[2] = test system: Escherichia coli (BCRC 10675); test: Inhibition zone (disk diffusion) assay; assay type: cell-based; details: then disk diffusion 16 h at 37°C
Description: (§3) All assays were performed in triplicate.
(§4) The antimicrobial activity of rEP from flask cultures was evaluated by determining its ability to prevent growth of Gram-positive and Gram-negative bacteria with a disk diffusion assay. […] The most susceptible pathogens were R. anatipestifer (CFC27) and R. anatipestifer (CFC437) (Table 3a). Next, we investigated the thermostability of flask-fermented rEP with regard to its toxicity toward S. aureus (BCRC 10780), E. coli (BCRC 10675) and P. aeruginosa (ATCC 19660). Empty vector with no insert in P. pastoris was used as a control. Thermostability was measured by disk diffusion assay after cultures were incubated for 5 min at 40, 60, 80, or 100°C (Table 3b).

[3] = test system: Riemerella anatipestifer (CFC437); test: Inhibition zone (disk diffusion) assay; assay type: cell-based; details: disk paper 16 h at 37°C, shake-flask supernatant 120 h after induction
Description: as §3, §4

[4] = test system: Riemerella anatipestifer (RA3); test: Inhibition zone (disk diffusion) assay; assay type: cell-based; details: disk paper 16 h at 37°C, shake-flask supernatant 120 h after induction
Description: as §3, §4

[5] = test system: duodenum villus; test: Intestinal morphology, histological analysis; assay type: in vivo, Gallus gallus domesticus; details: rEP animals compared to the control group, hematoxylin and eosin staining (S3 Fig)
Description: (§5) The growth promoting action of EP may be related to intestinal absorption and as such, small villus morphology was evaluated in a previous study. […] Moreover, growth enhancement has been observed in other reports. For example, feeding mice with PR39 peptide (4.7 kDa proline-rich AMP)-expressing Lactobacillus casei caused jejunum and duodenum villus height in the intestinal villi to increase. Use of recombinant porcine β-defensin 2 (rpBD2) as a feed additive for weaned piglets also produced increases in intestinal villus height of the duodenum and jejunum. Additionally, birds fed with AMP-A3 diet had increased villus height of the duodenum, jejunum and ileum. […] Fig). […] Supplementary file pone.0230021.s003.TIF: S3 Fig Effects of orally administered a rEP on posture, body weight, intestinal morphology, and gut flora. (a) After 28 days of feeding the 1.5% rEP-receiving chickens were larger than the spiraline A and basal diet controls. (b) The effects of feeding 1.5% rEP on body weight. (c) Representative picture of hematoxylin and eosin staining of intestinal villi and crypts. (d) The intestinal villus length and crypt depth were measured. (e) The effects of orally administrated the spiraline A, basal diet, and 1.5% rEP on intestinal microflora in G. g. domesticus. Relative proportions of bacterial families are shown. […]

[6] = test system: Interleukin-1β; test: Serum ELISA after dietary supplementation; assay type: in vivo, Gallus gallus domesticus; details: dietary supplementation 35 days, between groups
From the text: as §1, §2

[7] = test system: Lysozyme; test: Serum ELISA after dietary supplementation; assay type: in vivo, Gallus gallus domesticus; details: dietary supplementation 35 days, between groups
From the text: as §1, §2

[8] = test system: TNF-α; test: Serum ELISA after dietary supplementation; assay type: in vivo, Gallus gallus domesticus; details: dietary supplementation 35 days, between groups
From the text: as §1, §2

[9] = test system: Interleukin-6; test: Serum ELISA after dietary supplementation; assay type: in vivo, Gallus gallus domesticus; details: dietary supplementation 35 days, between groups
From the text: as §1, §2

[10] = test system: Interferon-γ; test: Serum ELISA after dietary supplementation; assay type: in vivo, Gallus gallus domesticus; details: 1.5% in diet, 35 days, compared to antibiotic group (P = 0.0043) and control group (P = 0.0073)
From the text: as §1, §2

[11] = test system: Interleukin-10; test: Serum ELISA after dietary supplementation; assay type: in vivo, Gallus gallus domesticus; details: rEP-supplemented group, 35 days, compared to control group (P = 0.0341), not different than the antibiotic group
From the text: as §1, §2

[12] = test system: intestinal microflora; test: Intestinal microflora in duodenum; assay type: in vivo, Gallus gallus domesticus; details: 1.5% rEP in diet, compared to spiraline A and basal diet groups (S3e Fig)
Description: as §5

[13] = diet with 0.75% rEP spray-dried powder
[14] = diet with 1.5% rEP spray-dried powder
[15] = diet with 3.0% rEP spray-dried powder
[16] = diet with 6.0% rEP spray-dried powder
[17] = diet with 12.0% rEP spray-dried powder

Sequence: EFFIFHIIKGLFHAGRMIHGLVNRRRHRHHHHHH [rEP, recombinant His-tagged Epinephelus lanceolatus piscidin from Pichia pastoris, used as crude culture supernatant or spray-dried powder]
- FE (feed efficiency) [1, 13]: 0.53±0.03
- PER (protein efficiency ratio) [1, 13]: 1.58±0.09
- Weight gain [1, 13]: 2531.80±142.13%
- Survival [1, 13]: 92.60%
- FE (feed efficiency) [1, 14]: 0.58±0.03
- PER (protein efficiency ratio) [1, 14]: 1.8±0.08
- Weight gain [1, 14]: 2727.42±116.08%
- Survival [1, 14]: 100%
- FE (feed efficiency) [1, 15]: 0.57±0.02
- PER (protein efficiency ratio) [1, 15]: 1.86±0.08
- Weight gain [1, 15]: 2809.71±119.30%
- Survival [1, 15]: 96.20%
- FE (feed efficiency) [1, 16]: 0.57±0.02
- PER (protein efficiency ratio) [1, 16]: 2.03±0.08
- Weight gain [1, 16]: 2738.11±109.04%
- Survival [1, 16]: 100%
- FE (feed efficiency) [1, 17]: 0.48±0.04
- PER (protein efficiency ratio) [1, 17]: 2.17±0.16
- Weight gain [1, 17]: 2181.26±158.95%
- Survival [1, 17]: 96.20%
- Inhibition zone diameter after heat treatment ([2]; thermostability: flask supernatant incubated 5 min at 40°C): 9.0±1.0 mm
- Inhibition zone diameter after heat treatment ([2]; thermostability: flask supernatant incubated 5 min at 60°C): 9.0±1.0 mm
- Inhibition zone diameter after heat treatment ([2]; thermostability: flask supernatant incubated 5 min at 80°C): 8.6±0.5 mm
- Inhibition zone diameter ([3]; first of two values printed): 11 mm
- Inhibition zone diameter ([3]; second of two values printed): 13 mm
- Inhibition zone diameter ([4]; first of two values printed): 10, 10 mm
- Inhibition zone diameter ([4]; second of two values printed): 10, 10 mm
- Duodenum villus height [5]: significantly greater
- Serum IL-1β level [6]: No significant changes
- Serum Lysozyme (Lyz) level [7]: No significant changes
- Serum TNF-α level [8]: No significant changes
- Serum IL-6 level [9]: No significant changes
- Serum IFN-γ level [10]: significantly increased
- Serum IL-10 level [11]: significantly higher
- Numbers of Enterobacteriaceae and Staphylococcaceae in duodenum [12]: decreasing
- Numbers of Lactobacillaceae and Entercoccaceae in duodenum [12]: significantly increased
